# Target: T1, human recombinant USP30 (Homo sapiens, UniProt Q70CQ3)
# T1 construct: purchased Boston Biochem E-582
# T1 sequence (Q70CQ3 1-517): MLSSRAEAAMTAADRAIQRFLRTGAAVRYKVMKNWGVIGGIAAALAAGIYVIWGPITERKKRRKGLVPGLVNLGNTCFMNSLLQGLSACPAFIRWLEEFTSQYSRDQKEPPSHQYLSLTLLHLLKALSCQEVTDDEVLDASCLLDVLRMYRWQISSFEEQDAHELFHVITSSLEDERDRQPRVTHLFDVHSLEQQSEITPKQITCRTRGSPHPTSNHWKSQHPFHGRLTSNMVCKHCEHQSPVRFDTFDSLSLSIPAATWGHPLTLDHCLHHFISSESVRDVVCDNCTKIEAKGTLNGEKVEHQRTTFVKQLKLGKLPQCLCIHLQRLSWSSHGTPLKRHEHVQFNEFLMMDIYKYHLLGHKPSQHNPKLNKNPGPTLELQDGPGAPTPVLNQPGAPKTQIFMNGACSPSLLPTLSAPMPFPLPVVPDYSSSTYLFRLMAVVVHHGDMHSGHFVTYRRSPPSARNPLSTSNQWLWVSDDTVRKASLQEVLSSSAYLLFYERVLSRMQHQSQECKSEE
# Assay: Ubiquitin-Rhodamine 110 Assay for USP30 Activity (USP30 Inhibitor Biochemical Assay)
# Conditions: 0.2 nM USP30, 25 nM Ub-Rh110, 30 min preincubation, 30 min at room temperature; read-out: USP30 potency range (USP30 biochemical IC50 assay, IC50 ranges)
# Method: Example A: Biochemical Assay: Ubiquitin-Rhodamine 110 Assay for USP30 Activity (USP30 Inhibitor Biochemical Assay)
# The assay was performed in a final volume of 9 μL in assay buffer containing 20 mM Tris-HCl (pH 8.0, (1M Tris-HCl, pH 8.0 solution; Corning 46-031-CM)), 1 mM GSH (L-glutathione reduced, Sigma-Aldrich, G4251-100G), 0.03% BGG (0.22 μM filtered, Sigma, G7516-25G), and 0.01% Triton X-100 (Sigma, T9284-10L). Nanoliter quantities of 10-point, 3-fold serial dilution in DMSO were pre-dispensed into 1536 assay plates (Corning, #3724BC) for a final test concentration of 25 μM to 1.3 nM, top to lowest dose, respectively. Concentration and incubation times were optimized for the maximal signal-to-background while maintaining initial velocity conditions at a fixed substrate concentration. The final concentration of USP30 (human recombinant USP30, Boston Biochem, cat. # E-582) in the assay was 0.2 nM. […] 3 μL of 2×USP30 was added to assay plates (pre-stamped with compound), preincubated for 30 minutes and then treated with 3 μL of 2×Ub-Rh110. Plates were incubated for 30 minutes at room temperature before addition of 3 μL of stop solution (final concentration of 10 mM citric acid (Sigma, 251275-500G)). Fluorescence was read on the Envision (excitation at 485 nm and emission at 535 nm; Perkin Elmer) or on the PheraSTAR (excitation at 485 nm and emission at 535 nm; BMG Labtech).
# For all assay formats data were reported as percent inhibition compared with control wells based on the following equation: % inh=1−((FLU−AveLow)/(AveHigh−AveLow)) where FLU=measured Fluorescence, AveLow=average Fluorescence of no enzyme control (n=16), and AveHigh=average Fluorescence of DMSO control (n=16). IC50 values were determined by curve fitting of the standard 4 parameter logistic fitting algorithm included in the Activity Base software package: IDBS XE Designer Model205. Data is fitted using the Levenburg Marquardt algorithm.
row,SMILES,IC50 [nM]
1,"CC(C)(C)c1sc(NC(=O)[C@]2(Cl)C[C@H](NC#N)C2)nc1Cl (single isomer, unassigned) [Compound 9-2, (1r,3r)-N-(5-tert-butyl-4-chloro-1,3-thiazol-2-yl)-1-chloro-3-(cyanoamino)cyclobutane-1-carboxamide]",100 to 1000
2,"N#CN[C@H]1C[C@H](C(=O)Nc2cccc(C(F)(F)F)c2)C1 [Compound 1-73, (1r,3r)-3-(cyanoamino)-N-[3-(trifluoro-methyl)phenyl] cyclobutane-1-carboxamide]",100 to 1000
3,"N#CN[C@H]1C[C@H](C(=O)Nc2cc(Cl)cc(C3CCCCC3)c2)C1 [Compound 1-62, (1r,3r)-N-(3-chloro-5-cyclohexylphenyl)-3-(cyanoamino)cyclo-butane-1-carboxamide]",< 100
4,"CC(C)(C)c1cnc(NC(=O)[C@H]2CC[C@@H](NC#N)C2)s1 [Compound 12-7, (1S,3R)-N-(5-tert-butyl-1,3-thiazol-2-yl)-3-(cyanoamino)cyclopentane-1-carboxamide]",1000 to 10000
5,"CN(c1nc(Cl)c(C2CCCCC2)s1)C(=O)[C@]1(F)C[C@H](NC#N)C1 [Compound 1-55, (1r,3r)-N-(4-chloro-5-cyclohexyl-1,3-thiazol-2-yl)-3-(cyanoamino)-1-fluoro-N-methylcyclobutane-1-carboxamide]",< 100
6,"N#CN[C@H]1C[C@H](C(=O)Nc2nc(C(F)(F)F)c(C3CCCCC3)s2)C1 [Compound 1-31, (1r,3r)-3-(cyanoamino)-N-[5-cyclohexyl-4-(trifluoromethyl)-1,3-thiazol-2-yl]cyclobutane-1-carboxamide]",< 100
7,"N#CN[C@@H]1CCC[C@H]1C(=O)Nc1ncc(C2CCCCC2)s1 [Compound 10-3, (1R,2R)-2-(cyanoamino)-N-(5-cyclohexyl-1,3-thiazol-2-yl)cyclopentane-1-carboxamide]",1000 to 10000
8,"N#CN[C@H]1C[C@H](C(=O)Nc2ncc([C@@H]3CCCC[C@H]3C(F)(F)F)s2)C1 (single isomer, unassigned) [Compound 1-35]",100 to 1000
9,"N#CN[C@H]1C[C@@H](NC(=O)c2ncc(-c3ccccc3)s2)C1 [Compound 4-1, 5-phenyl-N-[(cis)-3-(cyanoamino)cyclobutyl]-1,3-thiazole-2-carboxamide]",1000 to 10000
10,"N#CN[C@H]1C[C@H](C(=O)Nc2cc(-c3cccc(Cl)c3)on2)C1 [Compound 1-43, (1r,3r)-N-[5-(3-chlorophenyl)-1,2-oxazol-3-yl]-3-(cyanoamino)cyclo-butane-1-carboxamide]",100 to 1000
11,"N#CN[C@H]1CC[C@H](C(=O)Nc2ncc(C3CCCCC3)s2)CC1 [Compound 10-2, trans-4-(cyanoamino)-N-(5-cyclohexyl-1,3-thiazol-2-yl)cyclohexane-1-carboxamide]",1000 to 10000
12,"N#CN[C@H]1CC[C@@H](C(=O)Nc2ncc(-c3ccccc3)s2)C1 [Compound 12-1, (1R,3S)-3-(cyanoamino)-N-(5-phenyl-1,3-thiazol-2-yl)cyclopentane-1-carboxamide]",1000 to 10000
13,"N#CN[C@H]1CC[C@H](C(=O)Nc2ccn(-c3ccccc3)n2)C1 [Compound 12-2, (1S,3S)-3-(cyanoamino)-N-(1-phenyl-1H-pyrazol-3-yl)cyclopentane-1-carboxamide]",10000 to 25000
14,"N#CN[C@H]1C[C@H](C(=O)Nc2nc(Cl)c(C3CCCCC3)s2)C1 [Compound 1-10, (1r,3r)-N-(4-chloro-5-cyclohexyl-1,3-thiazol-2-yl)-3-(cyanoamino)cyclo-butane-1-carboxamide]",< 100
15,"CN(C(=O)c1cc(-c2cccc(C#N)c2)no1)[C@H]1C[C@H](NC#N)C1 [Compound 3-6, 3-(3-cyanophenyl)-N-methyl-N-[(1r,3r)-3-(cyanoamino)cyclobutyl]-1,2-oxazole-5-carboxamide]",1000 to 10000
16,"CC1(C)CCCC[C@@H]1c1ncc(NC(=O)[C@H]2C[C@H](NC#N)C2)s1 [Compound 1-12, (1r,3r)-3-(cyanoamino)-N-{2-[(1S)-2,2-dimethylcyclohexyl]-1,3-thiazol-5-yl}cyclobutane-1-carboxamide]",< 100
17,"N#CN[C@H]1C[C@@H](C(=O)Nc2cnn(-c3ccccc3)c2)C1 [Compound 5-1, cis-3-(cyanoamino)-N-(1-phenyl-1H-pyrazol-4-yl)cyclobutane-1-carboxamide]",1000 to 10000
18,"Cn1cc(-c2ccc(-c3cc(C(=O)N[C@H]4C[C@@H](NC#N)C4)on3)cc2)cn1 [Compound 3-3, 3-[4-(1-methyl-1H-pyrazol-4-yl)phenyl]-N-[(1s,3s)-3-(cyanoamino)cyclobutyl]-1,2-oxazole-5-carboxamide]",100 to 1000
19,"N#CN[C@H]1C[C@H](C(=O)Nc2cnc(C3CC(F)(F)C3)s2)C1 [Compound 1-9, (1r,3r)-3-(cyanoamino)-N-[2-(3,3-difluoro-cyclobutyl)-1,3-thiazol-5-yl]cyclobutane-1-carboxamide]",100 to 1000
20,"N#CN[C@H]1C[C@H](C(=O)Nc2sc(C3CCCCC3)nc2Cl)C1 [Compound 1-14, (1r,3r)-N-(4-chloro-2-cyclohexyl-1,3-thiazol-5-yl)-3-(cyanoamino)cyclo-butane-1-carboxamide]",100 to 1000
21,"N#CN[C@@H]1CCC[C@H](C(=O)Nc2ncc(C3CCCCC3)s2)C1 [Compound 10-6, (1S,3R)-3-(cyanoamino)-N-(5-cyclohexyl-1,3-thiazol-2-yl)cyclohexane-1-carboxamide]",1000 to 10000
22,"C[C@H]1CCCC[C@@H]1c1cnc(NC(=O)[C@H]2C[C@H](NC#N)C2)s1 [Compound 1-23, (1r,3r)-3-(cyanoamino)-N-{5-[(1S,2S)-2-methylcyclohexyl]-1,3-thiazol-2-yl}cyclobutane-1-carboxamide]",< 100
23,"N#CN[C@H]1C[C@H](C(=O)Nc2cnn(-c3ccccc3)c2)C1 [Compound 5-5, trans-3-(cyanoamino)-N-(1-phenyl-1H-pyrazol-4-yl)cyclobutane-1-carboxamide]",1000 to 10000
24,"CN(c1nc(Cl)c(C(C)(C)C)s1)C(=O)[C@]1(F)C[C@H](NC#N)C1 [Compound 1-54, (1r,3r)-N-(5-tert-butyl-4-chloro-1,3-thiazol-2-yl)-3-(cyanoamino)-1-fluoro-N-methylcyclobutane-1-carboxamide]",< 100
25,"N#CN[C@H]1C[C@H](C(=O)Nc2cc(-c3cccc(C#N)c3)no2)C1 [Compound 1-51, (1r,3r)-3-(cyanoamino)-N-[3-(3-cyanophenyl)-1,2-oxazol-5-yl]cyclobutane-1-carboxamide]",100 to 1000
26,"Cn1cc(-c2ccc(-c3cc(C(=O)N4CCC[C@]45C[C@H](NC#N)C5)on3)cc2)cn1 [Compound 3-4, {[(2r,4s)-5-{3-[4-(1-methyl-1H-pyrazol-4-yl)phenyl]-1,2-oxazole-5-carbonyl}-5-azaspiro[3.4]octan-2-yl]amino} carbonitrile]",100 to 1000
27,"N#CN[C@H]1CCC[C@H](C(=O)Nc2ncc(C3CCCCC3)s2)C1 [Compound 10-5, (1S,3S)-3-(cyanoamino)-N-(5-cyclohexyl-1,3-thiazol-2-yl)cyclohexane-1-carboxamide]",> 25000
28,"N#CN[C@H]1C[C@H](C(=O)Nc2ccc(F)c(N3CCCCC3)c2)C1 [Compound 1-63, (1r,3r)-3-(cyanoamino)-N-[4-fluoro-3-(piperidin-1-yl)phenyl]cyclobutane-1-carboxamide]",100 to 1000
